Laboratory results from ChEMBL document CHEMBL1201862, “PubChem BioAssay data set” (2004).
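96-well plates; 48 h exposure; 5 concentrations. Endpoints by linear interpolation between flanking doses. Not reached: highest tested concentration assigned. At the GI50, growth is halved.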 Calls of active or inactive are those of the source. Rule as the data show it: active = GI50 up to about 1.1 µM and inactive = higher.

Key:
Assay in all cases: NCI tumour cell line growth inhibition, 48 h
[1] = system: A498
[2] = system: A549
[3] = system: ACHN
[4] = system: CAKI-1
[5] = system: DU-145
[6] = system: HL-60
[7] = system: MDA-MB-435
[8] = system: Malme-3M
[9] = system: NCI-H522
[10] = system: NCI/ADR-RES
[11] = system: OVCAR-4
[12] = system: PC-3
[13] = system: RPMI-8226
[14] = system: SF-539
[15] = system: SK-MEL-2
[16] = system: SK-MEL-5
[17] = system: SN12C
[18] = system: SW-620
[19] = system: SF-295
[20] = system: 786-0

Measured: GI50

C=CCn1c(=O)ccn(COCCO)c1=O
inactive: [1] > 100 µM | [2] > 100 µM | [3] > 100 µM | [4] > 100 µM | [5] > 100 µM | [6] > 100 µM | [7] > 100 µM | [8] > 100 µM | [9] > 100 µM | [10] > 100 µM | [11] > 100 µM | [12] > 100 µM | [13] > 100 µM | [14] > 100 µM | [15] > 100 µM | [16] > 100 µM | [17] > 100 µM | [18] > 100 µM

CN(O)C(=O)CCCC(=O)NCC(C)(C)CNC(=O)CCCC(=O)N(C)O
inactive: [1] > 100 µM | [2] > 100 µM | [3] > 100 µM | [4] > 100 µM | [5] > 100 µM | [6] > 100 µM | [7] > 100 µM | [8] > 100 µM | [10] > 100 µM | [11] > 100 µM | [12] > 100 µM | [13] > 100 µM | [19] > 100 µM | [14] > 100 µM | [15] > 100 µM | [16] > 100 µM | [18] > 100 µM

O=C1/C(=C/c2ccccc2)NC(=S)N1CN1CCOCC1
inactive: [20] > 100 µM | [1] 82.2 µM | [2] > 100 µM | [3] > 100 µM | [5] > 100 µM | [7] > 100 µM | [8] > 100 µM | [10] > 100 µM | [11] 72.8 µM | [12] > 100 µM | [13] > 100 µM | [19] > 100 µM | [15] > 100 µM | [16] > 100 µM | [17] > 100 µM | [18] > 100 µM

c1cc(CN2CCNCCNCCNCC2)cc(CN2CCNCCNCCNCC2)c1
inactive: [20] > 100 µM | [2] > 100 µM | [3] > 100 µM | [5] > 100 µM | [7] > 100 µM | [8] > 100 µM | [10] > 100 µM | [11] > 100 µM | [12] > 100 µM | [13] > 100 µM | [19] > 100 µM | [14] > 100 µM | [15] > 100 µM | [16] > 100 µM | [17] > 100 µM | [18] > 100 µM

O=NN(CCCl)C(=O)N[C@H]1CC[C@H](C(=O)O)CC1
inactive: [1] > 100 µM | [2] > 100 µM | [4] > 100 µM | [8] 94.8 µM | [9] 38.6 µM | [10] > 100 µM | [11] > 100 µM | [13] > 66.8 µM | [19] 34.8 µM | [14] 36.1 µM | [15] > 100 µM | [16] > 31.6 µM | [17] > 100 µM | [18] > 61.1 µM

COC(=O)C(=O)C(C(C)=O)C(=O)C(=O)Nc1ccc(C)cc1C (configuration not stated)
inactive: [1] > 100 µM | [2] > 100 µM | [3] > 100 µM | [4] > 100 µM | [6] > 100 µM | [9] > 100 µM | [11] > 100 µM | [13] > 100 µM | [19] > 100 µM | [14] > 100 µM | [15] > 100 µM | [16] > 100 µM | [17] > 100 µM | [18] > 100 µM

CC(C)(C)[Si](OC1CCOC1=O)(c1ccccc1)c1ccccc1 (configuration not stated)
inactive: [1] 25.3 µM | [2] 15.2 µM | [3] 19.1 µM | [6] 14.4 µM | [8] 16.5 µM | [9] 13.8 µM | [13] 29 µM | [19] 16 µM | [14] 23.4 µM | [15] 16.6 µM | [16] 13.4 µM | [17] 17.1 µM | [18] 26.5 µM

Cc1nc2cccc(F)c2c(=O)n1C1CCCCNC1=O (configuration not stated)
inactive: [20] > 10 µM | [2] > 10 µM | [3] > 10 µM | [4] > 10 µM | [5] > 10 µM | [6] > 10 µM | [7] > 10 µM | [9] > 10 µM | [10] > 10 µM | [11] > 10 µM | [12] > 10 µM | [13] > 10 µM | [19] > 10 µM | [14] > 10 µM | [15] > 10 µM | [16] > 10 µM | [17] > 10 µM | [18] > 10 µM

CCCCCCCCCCCCCCCCCC(=O)OCC(COC(=O)CCCN)OC(=O)CCCN (configuration not stated)
inactive: [20] 17.3 µM | [2] 4.1 µM | [3] > 100 µM | [4] 18.7 µM | [5] 19.6 µM | [6] 54.2 µM | [7] 17.2 µM | [8] 23.2 µM | [9] 21 µM | [10] 19.7 µM | [11] 22 µM | [12] 17.1 µM | [19] 19.4 µM | [14] 18.2 µM | [17] 17.8 µM | [18] 19.6 µM
